Assay type in all cases: cell-based, human
The test system of test [1] is Target C mRNA. As to the kind of experiment: RT-qPCR splicing assay panel, Target C canonical junction (CJ) mRNA. Particulars: canonical junction (CJ) mRNA, RT-qPCR panel, Table 4A, read-out: Target C, decrease in CJ mRNA levels, IC50. The method, boiled down: (§1)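 Junction-specific RT-qPCR read the canonical exon-exon junction and the compound-induced alternative-exon junction, normalized to GAPDH, GUSB or PPIA and then to DMSO (2^(-ΔΔCt)). Input was lysate from A673 or K562 cells exposed for 24 h to compound up to 10 uM.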

For test [2], the system named is MYB mRNA. Description: RT-qPCR splicing assay, MYB canonical (CJ) and alternative (AJ) junction mRNA. The note with it: for AC50: read-out: MYB AJ (AC50, increase in AJ mRNA). The gist of the method: as §1
Test [3] relates to SMN2 mRNA. Description: RT-qPCR splicing assay panel, SMN2 canonical junction (CJ) mRNA. The note with it: canonical junction (CJ) mRNA, RT-qPCR panel, Table 4A, read-out: SMN2, decrease in CJ mRNA levels, IC50. The method, boiled down: as §1
The subject of test [4] is HTT mRNA. Description: RT-qPCR splicing assay, HTT canonical (CJ) and alternative (AJ) junction mRNA. Particulars: for AC50: read-out: HTT AJ (AC50, increase in AJ mRNA). The method, boiled down:
as §1

Setting [5] is: Homo sapiens, 24 h, Table 3A, A673 or K562 cells, 24 h treatment.
The mark [6] stands for this setting: Homo sapiens, 24 h, Table 3A, A673 or K562 cells, 24 h treatment, read-out: MYB CJ (IC50, decrease in CJ mRNA).
Where [7] appears, read: Homo sapiens, canonical junction (CJ) mRNA, RT-qPCR panel, Table 4A, read-out: MYB, decrease in CJ mRNA levels, IC50.
Setting [8] is: Homo sapiens, 24 h, Table 3A, A673 or K562 cells, 24 h treatment, read-out: HTT CJ (IC50, decrease in CJ mRNA).
The mark [9] stands for this setting: Homo sapiens, canonical junction (CJ) mRNA, RT-qPCR panel, Table 4A, read-out: HTT, decrease in CJ mRNA levels, IC50.
Setting [10] is: Table 3A, A673 or K562 cells, 24 h treatment.

Like-named read-outs stand apart in the source and are kept apart here.

The values below come from patent US20250333397A1 (REMIX THERAPEUTICS INC., priority 2021, published 2025).

Consider `Cc1ncc(-c2cc(O)c(-c3ccc(N4CC[C@@H](N[C@@H](C)C5CC5)C4)nn3)cc2F)s1` [Compound 373], for which the IC50 in test [1] (Homo sapiens), in test [2] (setting [6]), in test [2] (setting [7]), in test [3] (Homo sapiens), in test [4] (setting [8]) and in test [4] (setting [9]) was < 100 nM each time. Moreover, the AC50 in test [2] (setting [5]) and in test [4] (setting [5]) was < 100 nM each time.
Regarding `Oc1cc(-c2cn[nH]c2)ccc1-c1ccc(N2CCC(NC3CC3)C2)nn1` (stereo not shown) [Compound 102, 2-(6-(3-(cyclopropylamino)pyrrolidin-1-yl)pyridazin-3-yl)-5-(1H-pyrazol-4-yl)phenol], the IC50 was > 10000 nM in test [1]; > 10000 nM in test [2] (Table 3A, A673 or K562 cells, 24 h treatment, read-out: MYB CJ (IC50, decrease in CJ mRNA)); > 10000 nM in test [2] (canonical junction (CJ) mRNA, RT-qPCR panel, Table 4A, read-out: MYB, decrease in CJ mRNA levels, IC50); 1000 to 10000 nM in test [3]; > 10000 nM in test [4] (Table 3A, A673 or K562 cells, 24 h treatment, read-out: HTT CJ (IC50, decrease in CJ mRNA)); > 10000 nM in test [4] (canonical junction (CJ) mRNA, RT-qPCR panel, Table 4A, read-out: HTT, decrease in CJ mRNA levels, IC50). The AC50 in test [2] (setting [10]) and in test [4] (setting [10]) was > 10000 nM throughout.
Turning to `COc1cc(-c2cc(O)c(-c3ccc(N4CCC(NCC5CC5)C4)nn3)cc2F)ncn1` (stereo not shown) [Compound 417], the IC50 is > 10000 nM in test [1] (Homo sapiens); > 10000 nM in test [2] (setting [6]); > 10000 nM in test [2] (setting [7]); 1000 to 10000 nM in test [3] (Homo sapiens); 1000 to 10000 nM in test [4] (setting [8]); 1000 to 10000 nM in test [4] (setting [9]). The AC50 in test [2] (setting [5]) and in test [4] (setting [5]) was 1000 to 10000 nM each time.
For `Cc1nnc(-c2cc(O)c(-c3ccc(N4CC[C@@H](NC5CCC5)C4)nn3)cc2F)s1` [Compound 359], the IC50 in test [1] (Homo sapiens) was in the range of 1000 to 10000 nM; in test [2] (setting [6]), 1000 to 10000 nM; in test [2] (setting [7]), 1000 to 10000 nM; in test [3] (Homo sapiens) it was 100 to 1000 nM; in test [4] (setting [8]), 100 to 1000 nM; in test [4] (setting [9]), 100 to 1000 nM. Besides, the AC50 in test [2] (setting [5]) and in test [4] (setting [5]) was 1000 to 10000 nM in each case.
On to `COc1cc(-c2ccc(-c3ccc(N4CC[C@@H](N(CCF)C5CCC5)C4)nn3)c(O)c2)cnn1` [Compound 313, 2-{6-[(3R)-3-[cyclobutyl(2-fluoroethyl)amino]pyrrolidin-1-yl]pyridazin-3-yl}-5-(6-methoxypyridazin-4-yl)phenol], for which the IC50 is > 10000 nM in test [1] (Homo sapiens); > 10000 nM in test [2] (setting [6]); > 10000 nM in test [2] (setting [7]); 100 to 1000 nM in test [3] (Homo sapiens); 100 to 1000 nM in test [4] (setting [8]); 100 to 1000 nM in test [4] (setting [9]). The AC50 in test [2] (setting [5]) and in test [4] (setting [5]) was 1000 to 10000 nM in each case.
For the molecule `COc1cc(-c2cc(O)c(-c3ccc(N4CC[C@@H](NC(C)(C)C)C4)nn3)cc2F)cnn1` [Compound 212, 2-{6-[(3R)-3-(tert-butylamino)pyrrolidin-1-yl]pyridazin-3-yl}-4-fluoro-5-(6-methoxypyridazin-4-yl)phenol], the IC50 in test [1] (Homo sapiens), in test [2] (setting [6]), in test [2] (setting [7]), in test [3] (Homo sapiens), in test [4] (setting [8]) and in test [4] (setting [9]) was < 100 nM each time. For the same molecule, the AC50 in test [2] (setting [5]) and in test [4] (setting [5]) was < 100 nM throughout.
In the case of `Cc1ncc(-c2cc(O)c(-c3ccc(N4CCC(NC5CCOCC5)C4)nn3)cc2F)s1` (stereo not shown) [Compound 354, 4-fluoro-5-(2-methyl-1,3-thiazol-5-yl)-2-{6-[3-(oxan-4-ylamino)pyrrolidin-1-yl]pyridazin-3-yl}phenol], the IC50 in test [1] (Homo sapiens) is < 100 nM; in test [2] (setting [6]), 100 to 1000 nM; in test [2] (setting [7]) it was 100 to 1000 nM; in test [3] (Homo sapiens) it was < 100 nM; in test [4] (setting [8]), < 100 nM; in test [4] (setting [9]), < 100 nM. Moreover, the AC50 in test [2] (setting [5]) and in test [4] (setting [5]) was < 100 nM in each case.
For `COc1cncc(-c2cc(O)c(-c3ccc(N4CC[C@H](NC5CCC5)C4)nn3)cc2F)c1` [Compound 224, 2-{6-[(3S)-3-(cyclobutylamino)pyrrolidin-1-yl]pyridazin-3-yl}-4-fluoro-5-(5-methoxypyridin-3-yl)phenol], the IC50 in test [1] (Homo sapiens) is > 10000 nM; in test [2] (setting [6]), > 10000 nM; in test [2] (setting [7]) it was > 10000 nM; in test [3] (Homo sapiens), 1000 to 10000 nM; in test [4] (setting [8]), 1000 to 10000 nM; in test [4] (setting [9]), 1000 to 10000 nM. Besides, the AC50 in test [2] (setting [5]) and in test [4] (setting [5]) was > 10000 nM throughout.
For the molecule `CCOc1cc(-c2ccc(-c3ccc(N4CC[C@@H](NC5CCC5)C4)nn3)c(O)c2)cnn1` [Compound 301], the IC50 in test [1] (Homo sapiens) is > 10000 nM; in test [2] (setting [6]), > 10000 nM; in test [2] (setting [7]) it was > 10000 nM; in test [3] (Homo sapiens) it was 1000 to 10000 nM; in test [4] (setting [8]), > 10000 nM; in test [4] (setting [9]), > 10000 nM. Moreover, the AC50 in test [2] (setting [5]) and in test [4] (setting [5]) was > 10000 nM each time.
In the case of `Cc1ncc(-c2cc(O)c(-c3ccc(N4CC[C@](C)(NCC5CC5)C4)nn3)cc2F)s1` (single isomer, unassigned) [Compound 400], the IC50 is < 100 nM in test [1] (Homo sapiens); 100 to 1000 nM in test [2] (setting [6]); 100 to 1000 nM in test [2] (setting [7]); < 100 nM in test [3] (Homo sapiens); < 100 nM in test [4] (setting [8]); < 100 nM in test [4] (setting [9]). Besides, the AC50 was 100 to 1000 nM in test [2] (setting [5]) and < 100 nM in test [4] (setting [5]).
`COc1cc(-c2ccc(-c3cc(C)c(N4CC[C@H](NC5CCC5)C4)nn3)c(O)c2)cnn1` [Compound 449, 2-{6-[(3S)-3-(cyclobutylamino)pyrrolidin-1-yl]-5-methylpyridazin-3-yl}-5-(6-methoxypyridazin-4-yl)phenol]: the IC50 in test [1] (Homo sapiens) was 1000 to 10000 nM; in test [2] (setting [6]) it was 100 to 1000 nM; in test [2] (setting [7]), 100 to 1000 nM; in test [3] (Homo sapiens) it was < 100 nM; in test [4] (setting [8]), 100 to 1000 nM; in test [4] (setting [9]), 100 to 1000 nM. Besides, the AC50 in test [2] (setting [5]) and in test [4] (setting [5]) was 100 to 1000 nM in each case.
On to `Oc1cc(-c2cn[nH]c2)c(F)cc1-c1ccc(N2CC[C@@H](NC3CCC3)C2)nn1` [Compound 115, 2-{6-[(3R)-3-(cyclobutylamino)pyrrolidin-1-yl]pyridazin-3-yl}-4-fluoro-5-(1H-pyrazol-4-yl)phenol], for which the IC50 in test [1] (Homo sapiens), in test [2] (setting [6]), in test [2] (setting [7]), in test [3] (Homo sapiens), in test [4] (setting [8]) and in test [4] (setting [9]) was < 100 nM throughout. The concentration at half-maximal activity (AC50) in test [2] (setting [5]) and in test [4] (setting [5]) was < 100 nM in each case.
Consider `COc1cc(-c2ccc(-c3ccc(N4CC[C@](C)(NC5CCC5)C4)nn3)c(O)c2)ncn1` [Compound 365, 2-{6-[(3S)-3-(cyclobutylamino)-3-methylpyrrolidin-1-yl]pyridazin-3-yl}-5-(6-methoxypyrimidin-4-yl)phenol], for which the IC50 in test [1] (Homo sapiens) is < 100 nM; in test [2] (setting [6]), 100 to 1000 nM; in test [2] (setting [7]), 100 to 1000 nM; in test [3] (Homo sapiens) it was < 100 nM; in test [4] (setting [8]), < 100 nM; in test [4] (setting [9]) it was < 100 nM. Also, the AC50 in test [2] (setting [5]) is 100 to 1000 nM; in test [4] (setting [5]), < 100 nM.
In the case of `Oc1cc(-c2cnnc(C3CC3)c2)ccc1-c1ccc(N2CC[C@H](NC3CCC3)C2)nn1` [Compound 280], the IC50 in test [1] (Homo sapiens) is > 10000 nM; in test [2] (setting [6]) it was 1000 to 10000 nM; in test [2] (setting [7]), 1000 to 10000 nM; in test [3] (Homo sapiens), 100 to 1000 nM; in test [4] (setting [8]), 1000 to 10000 nM; in test [4] (setting [9]), 1000 to 10000 nM. For the same molecule, the figures for the concentration at half-maximal activity (AC50) in test [2] (setting [5]) and in test [4] (setting [5]) were > 10000 nM and 1000 to 10000 nM, respectively.
